Measured values from patent US20070049564A1 (Wyeth, priority 2005, published 2007).
In brackets after ≈: the same amount, converted by molar mass. Like-named read-outs stand apart in the source and are kept apart here.

What was measured:
E. coli GC 2236 = test: MIC, broth microdilution; settings: Escherichia coli
E. coli GC 2231 = test: MIC, broth microdilution; settings: Escherichia coli
E. coli GC 2232 = test: MIC, broth microdilution; settings: Escherichia coli
E. coli GC 2233 = test: MIC, broth microdilution; settings: Escherichia coli
E. coli GC 2234 = test: MIC, broth microdilution; settings: Escherichia coli
E. coli GC 2270 = test: MIC, broth microdilution; settings: Escherichia coli
E. coli GC 2271 = test: MIC, broth microdilution; settings: Escherichia coli
E. coli GC 3226 = test: MIC, broth microdilution; settings: Escherichia coli
E. coli GC 2203 = test: MIC, broth microdilution; settings: Escherichia coli
P. aeruginosa GC 2214 = test: MIC, broth microdilution; settings: Pseudomonas aeruginosa
S. aureus GC 6466 = test: MIC, broth microdilution; settings: Staphylococcus aureus
S. aureus GC 2216 = test: MIC, broth microdilution; settings: Staphylococcus aureus
S. aureus GC 6335 = test: MIC, broth microdilution; settings: Staphylococcus aureus
S. aureus GC 6469 = test: MIC, broth microdilution; settings: Staphylococcus aureus
E. faecalis GC 2265 = test: MIC, broth microdilution; settings: Enterococcus faecalis
E. faecium GC 4556 = test: MIC, broth microdilution; settings: Enterococcus faecium
E. faecium GC 2243 = test: MIC, broth microdilution; settings: Enterococcus faecium
S. pyogenes GC 4563 = test: MIC, broth microdilution; settings: Streptococcus pyogenes
E. coli = test: Range of MIC for E. coli strains; settings: Escherichia coli
Staph. = test: Range of MIC for Staph. strains, including MRSA; settings: Staphylococcus aureus, MRSA

MIC (E. coli GC 2236; GC2236, read-out: MINIMAL INHIBITORY CONCENTRATION MIC, pre-incubated in Mouse Serum): 2 µg/mL (≈ 2.57 µM) | MIC (E. coli GC 2236; GC2236, read-out: MINIMAL INHIBITORY CONCENTRATION MIC, pre-incubated in Water): > 64 µg/mL | MIC (E. coli GC 2231; GC2231, read-out: MINIMAL INHIBITORY CONCENTRATION MIC, pre-incubated in Mouse Serum): 4 µg/mL (≈ 5.14 µM) | MIC (E. coli GC 2231; GC2231, read-out: MINIMAL INHIBITORY CONCENTRATION MIC, pre-incubated in Water): > 64 µg/mL | MIC (E. coli GC 2232; GC2232, read-out: MINIMAL INHIBITORY CONCENTRATION MIC, pre-incubated in Mouse Serum): 1 µg/mL (≈ 1.29 µM) | MIC (E. coli GC 2232; GC2232, read-out: MINIMAL INHIBITORY CONCENTRATION MIC, pre-incubated in Water): > 64 µg/mL | MIC (E. coli GC 2233; GC2233, read-out: MINIMAL INHIBITORY CONCENTRATION MIC, pre-incubated in Mouse Serum): 2 µg/mL (≈ 2.57 µM) | MIC (E. coli GC 2233; GC2233, read-out: MINIMAL INHIBITORY CONCENTRATION MIC, pre-incubated in Water): > 64 µg/mL | MIC (E. coli GC 2234; GC2234, read-out: MINIMAL INHIBITORY CONCENTRATION MIC, pre-incubated in Mouse Serum): 1 µg/mL (≈ 1.29 µM) | MIC (E. coli GC 2234; GC2234, read-out: MINIMAL INHIBITORY CONCENTRATION MIC, pre-incubated in Water): > 64 µg/mL | MIC (E. coli GC 2270; GC2270, read-out: MINIMAL INHIBITORY CONCENTRATION MIC, pre-incubated in Mouse Serum): 1 µg/mL (≈ 1.29 µM) | MIC (E. coli GC 2270; GC2270, read-out: MINIMAL INHIBITORY CONCENTRATION MIC, pre-incubated in Water): > 64 µg/mL | MIC (E. coli GC 2271; GC2271, read-out: MINIMAL INHIBITORY CONCENTRATION MIC, pre-incubated in Mouse Serum): 1 µg/mL (≈ 1.29 µM) | MIC (E. coli GC 2271; GC2271, read-out: MINIMAL INHIBITORY CONCENTRATION MIC, pre-incubated in Water): > 64 µg/mL | MIC (E. coli GC 3226; GC3226, read-out: MINIMAL INHIBITORY CONCENTRATION MIC, pre-incubated in Mouse Serum): 2 µg/mL (≈ 2.57 µM) | MIC (E. coli GC 3226; GC3226, read-out: MINIMAL INHIBITORY CONCENTRATION MIC, pre-incubated in Water): > 64 µg/mL | MIC (E. coli GC 2203; GC2203, read-out: MINIMAL INHIBITORY CONCENTRATION MIC, pre-incubated in Mouse Serum): 1 µg/mL (≈ 1.29 µM) | MIC (E. coli GC 2203; GC2203, read-out: MINIMAL INHIBITORY CONCENTRATION MIC, pre-incubated in Water): > 64 µg/mL | MIC (P. aeruginosa GC 2214; GC2214, read-out: MINIMAL INHIBITORY CONCENTRATION MIC, pre-incubated in Mouse Serum): 32 µg/mL (≈ 41.1 µM) | MIC (P. aeruginosa GC 2214; GC2214, read-out: MINIMAL INHIBITORY CONCENTRATION MIC, pre-incubated in Water): > 64 µg/mL | MIC (S. aureus GC 6466; GC6466, read-out: MINIMAL INHIBITORY CONCENTRATION MIC, pre-incubated in Mouse Serum): 0.25 µg/mL (≈ 0.321 µM) | MIC (S. aureus GC 6466; GC6466, read-out: MINIMAL INHIBITORY CONCENTRATION MIC, pre-incubated in Water): 0.25 µg/mL (≈ 0.321 µM) | MIC (S. aureus GC 2216; GC2216, read-out: MINIMAL INHIBITORY CONCENTRATION MIC, pre-incubated in Mouse Serum): 0.5 µg/mL (≈ 0.643 µM) | MIC (S. aureus GC 2216; GC2216, read-out: MINIMAL INHIBITORY CONCENTRATION MIC, pre-incubated in Water): 0.5 µg/mL (≈ 0.643 µM) | MIC (S. aureus GC 6335; GC6335, read-out: MINIMAL INHIBITORY CONCENTRATION MIC, pre-incubated in Mouse Serum): 0.5 µg/mL (≈ 0.643 µM) | MIC (S. aureus GC 6335; GC6335, read-out: MINIMAL INHIBITORY CONCENTRATION MIC, pre-incubated in Water): 1 µg/mL (≈ 1.29 µM) | MIC (S. aureus GC 6469; GC6469, read-out: MINIMAL INHIBITORY CONCENTRATION MIC, pre-incubated in Mouse Serum): 1 µg/mL (≈ 1.29 µM) | MIC (S. aureus GC 6469; GC6469, read-out: MINIMAL INHIBITORY CONCENTRATION MIC, pre-incubated in Water): 2 µg/mL (≈ 2.57 µM) | MIC (E. faecalis GC 2265; GC2265, read-out: MINIMAL INHIBITORY CONCENTRATION MIC, pre-incubated in Mouse Serum): 2 µg/mL (≈ 2.57 µM) | MIC (E. faecalis GC 2265; GC2265, read-out: MINIMAL INHIBITORY CONCENTRATION MIC, pre-incubated in Water): 8 µg/mL (≈ 10.3 µM) | MIC (E. faecium GC 4556; GC4556, read-out: MINIMAL INHIBITORY CONCENTRATION MIC, pre-incubated in Mouse Serum): 1 µg/mL (≈ 1.29 µM) | MIC (E. faecium GC 4556; GC4556, read-out: MINIMAL INHIBITORY CONCENTRATION MIC, pre-incubated in Water): 4 µg/mL (≈ 5.14 µM) | MIC (E. faecium GC 2243; GC2243, read-out: MINIMAL INHIBITORY CONCENTRATION MIC, pre-incubated in Mouse Serum): 1 µg/mL (≈ 1.29 µM) | MIC (E. faecium GC 2243; GC2243, read-out: MINIMAL INHIBITORY CONCENTRATION MIC, pre-incubated in Water): 2 µg/mL (≈ 2.57 µM) | MIC (S. pyogenes GC 4563; GC4563, read-out: MINIMAL INHIBITORY CONCENTRATION MIC, pre-incubated in Mouse Serum): 0.25 µg/mL (≈ 0.321 µM) | MIC (S. pyogenes GC 4563; GC4563, read-out: MINIMAL INHIBITORY CONCENTRATION MIC, pre-incubated in Water): 0.25 µg/mL (≈ 0.321 µM) | MIC (E. coli; 20 h, read-out: Range of MIC, E. coli (Mouse Serum)): 1 to 4 µg/mL (≈ 1.29 to 5.14 µM) | MIC (E. coli; read-out: Range of MIC, E. coli (mouse serum)): 1 to 4 µg/mL (≈ 1.29 to 5.14 µM) | MIC (Staph.; read-out: Range of MIC, Staph (Mouse Serum)): 0.25 to 1 µg/mL (≈ 0.321 to 1.29 µM) | MIC (Staph.; read-out: Range of MIC, Staph (Water)): 0.25 to 4 µg/mL (≈ 0.321 to 5.14 µM) | MIC (Staph.; read-out: Range of MIC, Staph. (mouse serum)): 0.25 to 1 µg/mL (≈ 0.321 to 1.29 µM) | MIC (Staph.; read-out: Range of MIC, Staph. (water)): 0.25 to 4 µg/mL (≈ 0.321 to 5.14 µM)
SMILES: CCCN(CC(=O)Nc1cc(N(C)C)c2c(c1O)C(=O)C1=C(O)[C@]3(O)C(=O)C(C(N)=O)=C(O)[C@@H](N(C)C)[C@@H]3C[C@@H]1C2)C(=O)OCOC(=O)c1cc(C)cc(C)c1 [Example 26, ({[(2-{[(5aR,6aS,7S,10aS)-9-(aminocarbonyl)-4,7-bis(dimethylamino)-1,8,10a,11-tetrahydroxy-10,12-dioxo-5,5a,6,6a,7,10,10a,12-octahydrotetracen-2-yl]amino}-2-oxoethyl)(propyl)amino]carbonyl}oxy)methyl 3,5-dimethylbenzoate]
